Assay results from US20090233917A1, “Stroke recovery” (priority 2006, published 2009).

Key:
MCA occlusion in rats [1] = assay: Functional recovery following MCA occlusion in rats, dose study (Examples 2, 3, 6); type: in vivo, Sprague Dawley Rats
Protocol: Fifty male Sprague Dawley Rats, each weighing 300-400 g, are operated under anesthesia to create MCA occlusion as described in Example 1, and are divided into 5 groups of 10 animals each. Each group is given arimocolomol, p.o., starting at one day after the occlusion at 25 mg/kg/d, 50 mg/kg/d, 100 mg/kg/d, or 200 mg/kg/d once daily for 35 days. One group is a control group with administration of the vehicle only.
Animals are evaluated pre-operation (day −1), then every 7 days after the operation (7, 14, 21, 28, and 35) by forelimb and hindlimb placing tests and body swing test, and given scores as described in Example 1.
On day 35 after MCAO, rats in the control group and the group with the highest dosage were sacrificed and their brains evaluated as in Example 1. The rats in other groups are sacrificed and the brains were removed and flash frozen for further analysis.

[2] = Cerebrospinal fluid (CSF) levels after oral administration in humans; type: in vivo, human; conditions: 3 and 6 hours after oral administration, increasing doses
MCA occlusion in rats [3] = assay: Functional recovery following MCA occlusion in rats, therapeutic window / time course (Examples 4, 5); type: in vivo, Sprague Dawley Rats
Protocol: Fifty male Sprague Dawley Rats, each weighing 300-400 g, are operated under anesthesia to create MCA occlusion as described in Example 1, and are divided into 5 groups of 10 animals each. […] One group is a control group with administration of the vehicle only at 6 hours. The animals are evaluated as described in Example 2. The experiment of Example 4 is also carried out using iroxanadine as the therapeutic agent.

healthy human volunteers = assay: Pharmacokinetic clinical study in healthy human volunteers; type: in vivo
Protocol: Seven healthy human volunteers were administered orally 400 mg t.i.d. dosing (1200 mg/day) in a double-blinded and placebo controlled clinical study.

[4] = system: embolic middle cerebral artery occlusion (MCAO) in rats; assay: Functional recovery following embolic MCAO in rats (Example 13); type: in vivo, Wistar rats; conditions: for foot fault test, compared to EPO treatment group: 10 h treatment group
From the text: The purpose of this study was to evaluate the efficacy of arimoclomol in enhancing neurological recovery in a model of embolic middle cerebral artery occlusion (MCAO) in rats (Zhang R L et al. Brain Research 766:83-92, 1997). The embolic MCAO model emulates the damage caused by an embolic stroke which is generally the result of ischemia associated damage or diseases. The embolic MCAO model also closely models the types of damage caused by a stroke because the occlusion is not permanent. Moreover, the embolus often undergoes spontaneous clot lysis and reperfusion within 24-48 hours post-stroke, which is similar to a subset of human stroke. Damage from a stroke can be brought about in two ways. […] Second, the resulting pressure from the initial surge in blood volume once the occlusion is cleared can also result in further neurological damage and damage to the effected blood vessel. This embolic stroke model provides guidance for the neurological recovery resulting from each of these phenomena.
Sixty male Wistar rats between 8-12 weeks of age were operated on to isolate the external carotid artery (ECA) and the internal carotid artery (ICA). A single clot was introduced into the ECA lumen through a PE-50 catheter (0.3 mm outer diameter) attached to a 100 μL Hamilton syringe filled with 0.9% saline via a small puncture. A 16 mm length of the PE-50 catheter was advanced from the ECA into the lumen of the ICA. Subsequently, the clot was injected into the ICA with 2-3 μL of 0.9% saline. The catheter was withdrawn and the right ECA ligated.
The rats were then randomly divided into 6 groups of 10 animals each. To the control group, phosphate buffered saline (PBS) was administered, p.o., starting at six hours after embolic stroke for 28 consecutive days. To the second group, Erythropoitein (EPO) was administered, i.p., starting at 24 hours after embolic stroke for 7 consecutive days (41.7 μg/kg/d). To the third group, arimoclomol was administered daily p.o. (200 mg/kg/d), starting 6 hours after embolic stroke for 28 consecutive days. To the fourth group, arimoclomol was administered daily p.o. (200 mg/kg/d), starting 10 hours after embolic stroke for 28 consecutive days. To the fifth group, arimoclomol was administered p.o. (200 mg/kg/d), starting 24 hours after embolic stroke for 28 consecutive days. To the sixth group, arimoclomol was administered p.o. (200 mg/kg/d), starting 48 hours after embolic stroke for 28 consecutive days.
Animals were evaluated at 1, 3, 7, 14, 21, and 28 days after initiation of embolic stroke by a modified neurological severity score (mNSS) and adhesive-removal and foot fault tests. These tests are widely accepted as standard tests indicative of functional recovery after a stroke. (Chen et al., Ann Neurol 53: 743-751, 2003; Wang et al., Stroke 35: 1732-1737, 2004; Zhang et al, Circulation 3486-3494, 2005).
For the modified neurological severity score (mNSS), the severity of injury was graded on a scale of 0 to 18. This score was determined via the evaluation of a variety of motor tests, sensory tests, balance beam tests and reflex tests as illustrated in Table II below. To determine the score resulting from these tests, one point was awarded for the inability to perform any of the tests or for the lack of a tested reflex. Accordingly, the higher the score, the more severe the injury. (Chen et al., Ann Neurol 53: 743-751, 2003; Wang et al., Stroke 35: 1732-1737, 2004; Zhang et al, Circulation 3486-3494, 2005).
For the adhesive removal test, the rats are trained prior to embolic stroke to remove strips of packing tape (5 cm). The training period constitutes of 3 sessions. Each session consists of 6 bilateral stimulation trials conducted over 2 days wherein the 5 cm strips of packing tape were placed firmly around both wrists of the animal so that they covered the hairless part of the forepaw. […]

[5] = 6 h, 10 h, and 24 h treatment groups, on and after the 14-day time point

[O-][n+]1cccc(/C(Cl)=N/OC[C@H](O)CN2CCCCC2)c1 [arimoclomol, N-[2-hydroxy-3-(1-piperidinyl)propoxy]-pyridine-1-oxide-3-carboximidoyl chloride]
behavioral scores compared to vehicle control group (MCA occlusion in rats [1]; 25 mg/kg/day p.o. from one day after occlusion): no significant difference | behavioral scores (forelimb placement, hindlimb placement, body swing tests) (MCA occlusion in rats [1]; 50, 100 and 200 mg/kg/day p.o. from one day after occlusion, 35 days): significant dose related improvement | changes in infarct volume (MCA occlusion in rats [1]; day 35, highest dosage vs control): no changes | changes in body weight (MCA occlusion in rats [1]; dose study, 35 days): no changes | effective doses in the stroke recovery model (MCA occlusion in rats [1]; p.o. once daily): 50 to 200 mg/kg/day | maximum effective dose in the study (MCA occlusion in rats [1]; p.o. once daily): 200 mg/kg/day | penetration of the human blood-brain barrier (CSF levels) [2]: penetrates the human blood-brain barrier | Body Swing Test, recovery compared to vehicle group (MCA occlusion in rats [3]; 200 mg/kg/d p.o., all start times): superior to the vehicle group | Hindlimb Placing Test, time course of recovery compared to vehicle group (MCA occlusion in rats [3]; 200 mg/kg/d p.o., first dose 6, 12, 24 or 48 h after occlusion): superior to the vehicle group | Forelimb Placing Test, recovery compared to vehicle group (MCA occlusion in rats [3]; 200 mg/kg/d p.o., first dose 6, 12, 24 or 48 h after occlusion, all groups): superior to the vehicle group | Hindlimb Placing Test, difference among treated groups (MCA occlusion in rats [3]; first administration 6, 12, 24, or 48 hours after occlusion): no statistical difference | Body Swing Test, performance after 21 days (MCA occlusion in rats [3]; first administration 6 hours after occlusion): continued to show improved performance | Forelimb Placing Test, recovery compared to other start times (MCA occlusion in rats [3]; first administration 6 hours after stroke): superior | Forelimb Placing Test, recovery (MCA occlusion in rats [3]; first administration 48 hours after occlusion): significant and sustained | Body Swing Test, recovery of 48 h group compared to 6 h group (MCA occlusion in rats [3]; time points up to and including 21 days after occlusion): indistinguishable | clinical abnormalities or changes (ECGs, vital signs, clinical chemistry, physical examination, body weight) (healthy human volunteers; 400 mg t.i.d. (1200 mg/day) orally): No clinical abnormalities or changes were observed | level of exposure of the 200 mg/kg/day rat PK study in humans (healthy human volunteers; 400 mg t.i.d. orally, AUC and Cmax, FIG. 15): can be safely achieved in human volunteers | adhesive-removal test, recovery compared to control group ([4]; 200 mg/kg/d p.o., start 6 h, 10 h, 24 h and 48 h after embolic stroke, after the 14 day time point): significantly superior | foot fault test, recovery compared to control groups [4, 5]: significantly superior | mNSS test, recovery compared to control groups [4, 5]: significantly greater | infarct volume compared to control groups ([4]; 6 h and 10 h treatment groups, after 28 days of treatment): significantly lower percentage of infarct volume | foot fault test, compared to EPO treatment group ([4]; 21-day time point): significantly superior | foot fault test, compared to EPO treatment group ([4]; 28-day time point): slightly superior | adhesive-removal test, improvement percentage compared to control ([4]; day 28, each time group (6, 10, 24, 48 h)): greater than 25%
